Experimental data: patent US20260262643A1, “HERBICIDAL BENZOXAZINES” (FMC CORPORATION, priority 2022, published 2026)

What was measured:
barnyardgrass [1] = assay: Test C preemergence; format: in vivo, Echinochloa crusgalli
In short: (§1)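 Greenhouse herbicide screen, 10-day duration. Test chemicals in solvent/surfactant blend were sprayed onto soil at sowing (pre) or onto 2–10 cm seedlings at one to two leaves (post); injury scored visually against controls, 0 no effect to 100 complete control.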

blackgrass [2] = assay: Test C preemergence; format: in vivo, Alopecurus myosuroides
In short: as §1

corn [3] = assay: Test C preemergence; format: in vivo, Zea mays
In short: as §1

green foxtail [4] = assay: Test C preemergence; format: in vivo, Setaria viridis
In short: as §1

kochia [5] = assay: Test C preemergence; format: in vivo, Bassia scoparia
In short: as §1

oat, wild [6] = assay: Test C preemergence; format: in vivo, Avena fatua
In short: as §1

pigweed, palmer [7] = assay: Test C preemergence; format: in vivo, Amaranthus palmeri
In short: as §1

ragweed [8] = assay: Test C preemergence; format: in vivo, Ambrosia artemisiifolia
In short: as §1

ryegrass, Italian [9] = assay: Test C preemergence; format: in vivo, Lolium multiflorum
In short: as §1

soybean [10] = assay: Test C preemergence; format: in vivo, Glycine max
In short: as §1

wheat [11] = assay: Test C preemergence; format: in vivo, Triticum aestivum
In short: as §1

barnyardgrass [12] = assay: Test C postemergence; format: in vivo, Echinochloa crusgalli; conditions: 10 days, 0 to 100 scale (0 no effect, 100 complete control)
In short: as §1

blackgrass [13] = assay: Test C postemergence; format: in vivo, Alopecurus myosuroides; conditions: 10 days, 0 to 100 scale (0 no effect, 100 complete control)
In short: as §1

corn [14] = assay: Test C postemergence; format: in vivo, Zea mays; conditions: 10 days, 0 to 100 scale (0 no effect, 100 complete control)
In short: as §1

green foxtail [15] = assay: Test C postemergence; format: in vivo, Setaria viridis; conditions: 10 days, 0 to 100 scale (0 no effect, 100 complete control)
In short: as §1

kochia [16] = assay: Test C postemergence; format: in vivo, Bassia scoparia; conditions: 10 days, 0 to 100 scale (0 no effect, 100 complete control)
In short: as §1

oat, wild [17] = assay: Test C postemergence; format: in vivo, Avena fatua; conditions: 10 days, 0 to 100 scale (0 no effect, 100 complete control)
In short: as §1

pigweed, palmer [18] = assay: Test C postemergence; format: in vivo, Amaranthus palmeri; conditions: 10 days, 0 to 100 scale (0 no effect, 100 complete control)
In short: as §1

ragweed [19] = assay: Test C postemergence; format: in vivo, Ambrosia artemisiifolia; conditions: 10 days, 0 to 100 scale (0 no effect, 100 complete control)
In short: as §1

ryegrass, Italian [20] = assay: Test C postemergence; format: in vivo, Lolium multiflorum; conditions: 10 days, 0 to 100 scale (0 no effect, 100 complete control)
In short: as §1

soybean [21] = assay: Test C postemergence; format: in vivo, Glycine max; conditions: 10 days, 0 to 100 scale (0 no effect, 100 complete control)
In short: as §1

wheat [22] = assay: Test C postemergence; format: in vivo, Triticum aestivum; conditions: 10 days, 0 to 100 scale (0 no effect, 100 complete control)
In short: as §1

galium = assay: Test C postemergence; format: in vivo, Galium aparine; conditions: 10 days, 0 to 100 scale (0 no effect, 100 complete control)
In short: as §1

horseweed = assay: Test C postemergence; format: in vivo, Erigeron canadensis; conditions: 10 days, 0 to 100 scale (0 no effect, 100 complete control)
In short: as §1

barnyardgrass [23] = assay: Test D flooded paddy test; format: in vivo, Echinochloa crus-galli; conditions: 250 g ai/ha, applied to paddy water, visual rating after 13 to 14 days, scale 0 to 100 (0 no effect, 100 complete control)
In short: (§2)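 Post-flood water application at the 2-leaf stage; 3 cm flood depth kept constant; visual control rating 0–100 after 13–14 days greenhouse growth.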

ducksalad = assay: Test D flooded paddy test; format: in vivo, Heteranthera limosa; conditions: 250 g ai/ha, applied to paddy water, visual rating after 13 to 14 days, scale 0 to 100 (0 no effect, 100 complete control)
In short: as §2

rice = assay: Test D flooded paddy test; format: in vivo, Oryza sativa; conditions: 250 g ai/ha, applied to paddy water, visual rating after 13 to 14 days, scale 0 to 100 (0 no effect, 100 complete control)
In short: as §2

sedge, umbrella = assay: Test D flooded paddy test; format: in vivo, Cyperus difformis; conditions: 250 g ai/ha, applied to paddy water, visual rating after 13 to 14 days, scale 0 to 100 (0 no effect, 100 complete control)
In short: as §2

[24] = 500 g ai/ha, preemergence, 0 to 100 scale (0 no effect, 100 complete control)
[25] = Preemergence, 125 g ai/ha, 0 to 100 scale, 0 no effect, 100 complete control

CCOC(=O)c1ncn(-c2ccc(C)c(C(=O)N3C[C@H](C)Oc4c(Cl)cccc43)c2)n1 [Compound 342]
Barnyardgrass plant response rating (barnyardgrass [1]; [24]): 60
Plant response rating, Barnyardgrass (barnyardgrass [1]; [25]): 20
Blackgrass plant response rating (blackgrass [2]; [24]): 50
Plant response rating, Blackgrass (blackgrass [2]; [25]): 20
Corn plant response rating (corn [3]; [24]): 20
Plant response rating, Corn (corn [3]; [25]): 0
Foxtail, Green plant response rating (green foxtail [4]; [24]): 90
Plant response rating, Foxtail, Green (green foxtail [4]; [25]): 40
Kochia plant response rating (kochia [5]; [24]): 0
Plant response rating, Kochia (kochia [5]; [25]): 0
Oat, Wild plant response rating (oat, wild [6]; [24]): 80
Plant response rating, Oat, Wild (oat, wild [6]; [25]): 20
Pigweed, Palmer plant response rating (pigweed, palmer [7]; [24]): 70
Plant response rating, Pigweed, Palmer (pigweed, palmer [7]; [25]): 30
Ragweed plant response rating (ragweed [8]; [24]): 20
Plant response rating, Ragweed (ragweed [8]; [25]): 0
Ryegrass, Italian plant response rating (ryegrass, Italian [9]; [24]): 80
Plant response rating, Ryegrass, Italian (ryegrass, Italian [9]; [25]): 70
Soybean plant response rating (soybean [10]; [24]): 10
Plant response rating, Soybean (soybean [10]; [25]): 10
Wheat plant response rating (wheat [11]; [24]): 30
Plant response rating, Wheat (wheat [11]; [25]): 0
Plant response rating, Barnyardgrass (barnyardgrass [12]; 500 g ai/ha, postemergence): 70
Plant response rating, Barnyardgrass (barnyardgrass [12]; Postemergence, 125 g ai/ha): 60
Plant response rating, Blackgrass (blackgrass [13]; 500 g ai/ha, postemergence): 80
Plant response rating, Blackgrass (blackgrass [13]; Postemergence, 125 g ai/ha): 60
Plant response rating, Corn (corn [14]; 500 g ai/ha, postemergence): 70
Plant response rating, Corn (corn [14]; Postemergence, 125 g ai/ha): 70
Plant response rating, Foxtail, Green (green foxtail [15]; 500 g ai/ha, postemergence): 90
Plant response rating, Foxtail, Green (green foxtail [15]; Postemergence, 125 g ai/ha): 80
Plant response rating, Kochia (kochia [16]; 500 g ai/ha, postemergence): 60
Plant response rating, Kochia (kochia [16]; Postemergence, 125 g ai/ha): 40
Plant response rating, Oat, Wild (oat, wild [17]; 500 g ai/ha, postemergence): 80
Plant response rating, Oat, Wild (oat, wild [17]; Postemergence, 125 g ai/ha): 70
Plant response rating, Pigweed, Palmer (pigweed, palmer [18]; 500 g ai/ha, postemergence): 100
Plant response rating, Pigweed, Palmer (pigweed, palmer [18]; Postemergence, 125 g ai/ha): 90
Plant response rating, Ragweed (ragweed [19]; 500 g ai/ha, postemergence): 80
Plant response rating, Ragweed (ragweed [19]; Postemergence, 125 g ai/ha): 50
Plant response rating, Ryegrass, Italian (ryegrass, Italian [20]; 500 g ai/ha, postemergence): 70
Plant response rating, Ryegrass, Italian (ryegrass, Italian [20]; Postemergence, 125 g ai/ha): 70
Plant response rating, Soybean (soybean [21]; 500 g ai/ha, postemergence): 90
Plant response rating, Soybean (soybean [21]; Postemergence, 125 g ai/ha): 100
Plant response rating, Wheat (wheat [22]; 500 g ai/ha, postemergence): 80
Plant response rating, Wheat (wheat [22]; Postemergence, 125 g ai/ha): 70
Plant response rating, Galium (galium; 500 g ai/ha, postemergence): 80
Plant response rating, Galium (galium; Postemergence, 125 g ai/ha): 70
Plant response rating, Horseweed (horseweed; 500 g ai/ha, postemergence): 50
Plant response rating, Horseweed (horseweed; Postemergence, 125 g ai/ha): 10
Plant response rating, Barnyardgrass (Flood) (barnyardgrass [23]): 0
Plant response rating, Ducksalad (Flood) (ducksalad): 10
Plant response rating, Rice (Flood) (rice): 15
Plant response rating, Sedge, Umbrella (Flood) (sedge, umbrella): 15
